Experimental data taken from patent US10351573B2, “Benzoic acid, benzoic acid derivatives and heteroaryl carboxylic acid conjugates of hydrocodone, prodrugs, methods of making and uses thereof” (KemPharm, Inc., priority 2009, dated 2019).
Entries after “also recorded” stand apart in the source; their conditions may differ. Ends that are not written are not given here.

Key:
[1] = Chemical stability: hydrolysis of conjugates in water for one hour; format: physicochemical
Procedure: Exemplary conjugates of hydrocodone of the present technology and control test conjugates not of the present technology were tested for chemical stability under conditions similar to what a potential drug abuser may use to “extract” the active portion of the molecule, for example dissolved in water, hydrochloric acid or sodium bicarbonate either at ambient temperature or 100° C.

[2] = Oral PK profiles in rats (plasma hydrocodone, hydromorphone, intact Bz-HC by LC/MS/MS); settings: equivalent to 2 mg/kg hydrocodone freebase
[3] = Hydrolysis to hydrocodone in 1 N hydrochloric acid for 1 hour
[4] = Hydrolysis in 5% NaHCO3 for one hour; format: physicochemical
[5] = Water solubility / feasibility of intranasal or intravenous dosing
[6] = Intranasal PK profile in rats; settings: equivalent to 2 mg/kg hydrocodone freebase
[7] = Tamper resistance: solvent hydrolysis studies; format: physicochemical
Procedure: In order to further evaluate the tamper-resistant properties of Bz-HC, a wide variety of Bz-HC solvent extraction studies were performed. […] The prodrug is not cleaved and no hydrocodone becomes available. […] We also conducted a wide variety of Bz-HC solvent hydrolysis studies in our own laboratories.

[8] = Example 22: intranasal crushed / oral intact tablets human PK study vs HB/APAP
[9] = Example 20: intact Bz-HC in plasma samples of Examples 13-18; format: in vivo; settings: humans, oral, LLOQ
Procedure: Validated LC/MS/MS methods were used to measure plasma concentrations of Bz-HC, hydrocodone, hydromorphone and acetaminophen (APAP). The lower limits of quantitation (LLOQ) for Bz-HC, hydrocodone, hydromorphone, and APAP in plasma were 25 pg/mL, 250 pg/mL, 25 pg/mL, and 0.025 μg/mL, respectively for examples 14-18. For example 13, the lower limits of quantitation (LLOQ) for Bz-HC, hydrocodone, hydromorphone were 0.5 ng/mL.
LC/MS/MS analyses were performed in order to attempt to measure intact Bz-HC concentrations in the plasma samples obtained from any of the blood samples described above in Examples 13-18. However, all plasma concentrations of intact Bz-HC were <LLOQ (25 pg/mL) and no PK analyses could be performed

[10] = Oral PK profiles in dogs; settings: equivalent to 2 mg/kg hydrocodone freebase
[11] = system: trypsin, pancreatin, pepsin and various esterases; test: Enzymatic tampering studies; format: in vitro ADME
Description: Without being bound by theory, it is believed that metabolism of Bz-HC after oral administration that allows for the rapid release of therapeutic amounts of hydrocodone requires the combinations and processes of the esterases and other enzymes functioning in the living enterocytes and liver tissue inside the body.

[12] = human, plasma, inhaled or intranasal, 13.34 mg

2-aminobenzoate hydrocodone [Compound 2-ABz-HC]
%-release (conjugate hydrolyzed) in water ([1]; 100° C.): 0% | %-release (conjugate hydrolyzed) in water ([1]; ambient (about 20° C.)): 0% | AUC of hydrocodone, % lower than Hydrocodone.BT [2]: approximately 35% | AUC of hydromorphone, % lower than Hydrocodone.BT [2]: approximately 25% | Cmax of hydrocodone, % lower than Hydrocodone.BT [2]: ~60% | Cmax of hydromorphone, % lower than Hydrocodone.BT [2]: ~50% | %-release in 1N HCl ([3]; 100° C.): 16% | %-release in 1N HCl ([3]; ambient (~20° C.)): 0%

COc1ccc(C(=O)OC2=CC[C@H]3[C@H]4Cc5ccc(OC)c6c5[C@@]3(CCN4C)C2O6)cc1O (stereo partly shown) [3-OH-4-MeO-Bz-HC]
%-release in 5% NaHCO3 ([4]; 5% NaHCO3, 100° C.): 36% | %-release in 5% NaHCO3 ([4]; 5% NaHCO3, ambient (~20° C.)): 0% | %-release in 1N HCl ([3]; 100° C.): 35% | %-release in 1N HCl ([3]; ambient (~20° C.)): 0% | water solubility (in words) [5]: poorly water soluble; also recorded: hydrophobic

COc1ccc2c3c1OC1C(OC(=O)CCCCC(=O)O)=CC[C@H]4[C@@H](C2)N(C)CC[C@]314 (stereo partly shown) [Adipate-HC, reference compound]
AUC for hydromorphone (FIG. 8), % higher than Bz-HC [6]: approximately 750% | AUC for hydromorphone (so in the source); FIG. 7, hydrocodone curves), % higher than Bz-HC [6]: approximately 280% | Cmax for hydromorphone (FIG. 8), % higher than Bz-HC [6]: ~660% | Cmax for hydromorphone (so in the source); FIG. 7, hydrocodone curves), % higher than Bz-HC [6]: ~60% | %-release in 5% NaHCO3 ([4]; 5% NaHCO3, 100° C.): 100% | %-release in 5% NaHCO3 ([4]; 5% NaHCO3, ambient (~20° C.)): 3% | %-release in 1N HCl ([3]; 100° C.): 100% | %-release in 1N HCl ([3]; ambient (~20° C.)): 13% | water solubility (in words) [5]: water soluble

COc1ccc2c3c1OC1C(OC(=O)c4ccccc4)=CCC4C(C2)N(C)CCC314 (stereo not shown) [Bz-HC, benzoate-hydrocodone]
%-release of Hydrocodone ([7]; Acetone, ambient temperature, 0.5 h): 0% | %-release of Hydrocodone ([7]; Acetone, ambient temperature, 1 h): 0% | %-release of Hydrocodone ([7]; Acetone, ambient temperature, 4 h): 0% | %-release of Hydrocodone ([7]; Acetone, at boiling point, 0.5 h): 0% | %-release of Hydrocodone ([7]; Acetone, at boiling point, 1 h): 0% | %-release of Hydrocodone ([7]; Acetone, at boiling point, 4 h): 0% | %-release of Hydrocodone ([7]; Ethanol, ambient temperature, 0.5 h): 0% | %-release of Hydrocodone ([7]; Ethanol, ambient temperature, 1 h): 0% | %-release of Hydrocodone ([7]; Ethanol, ambient temperature, 4 h): 0% | %-release of Hydrocodone ([7]; Ethanol, at boiling point, 0.5 h): 0% | %-release of Hydrocodone ([7]; Ethanol, at boiling point, 1 h): 0% | %-release of Hydrocodone ([7]; Ethanol, at boiling point, 4 h): 0% | %-release of Hydrocodone ([7]; Ethyl acetate, ambient temperature, 0.5 h): 0% | %-release of Hydrocodone ([7]; Ethyl acetate, ambient temperature, 1 h): 0% | %-release of Hydrocodone ([7]; Ethyl acetate, ambient temperature, 4 h): 0% | %-release of Hydrocodone ([7]; Ethyl acetate, at boiling point, 0.5 h): 0% | %-release of Hydrocodone ([7]; Ethyl acetate, at boiling point, 1 h): 0% | %-release of Hydrocodone ([7]; Ethyl acetate, at boiling point, 4 h): 0% | %-release of Hydrocodone ([7]; Methanol, ambient temperature, 0.5 h): 0% | %-release of Hydrocodone ([7]; Methanol, ambient temperature, 1 h): 0% | %-release of Hydrocodone ([7]; Methanol, ambient temperature, 4 h): 0% | %-release of Hydrocodone ([7]; Methanol, at boiling point, 0.5 h): 0% | %-release of Hydrocodone ([7]; Methanol, at boiling point, 1 h): 0% | %-release of Hydrocodone ([7]; Methanol, at boiling point, 4 h): 0% | %-release of Hydrocodone ([7]; Methyl ethyl ketone, ambient temperature, 0.5 h): 0% | %-release of Hydrocodone ([7]; Methyl ethyl ketone, ambient temperature, 1 h): 0% | %-release of Hydrocodone ([7]; Methyl ethyl ketone, ambient temperature, 4 h): 0% | %-release of Hydrocodone ([7]; Methyl ethyl ketone, at boiling point, 0.5 h): 0% | %-release of Hydrocodone ([7]; Methyl ethyl ketone, at boiling point, 1 h): 0% | %-release of Hydrocodone ([7]; Methyl ethyl ketone, at boiling point, 4 h): 0% | %-release of Hydrocodone ([7]; Octane, ambient temperature, 0.5 h): 0% | %-release of Hydrocodone ([7]; Octane, ambient temperature, 1 h): 0% | %-release of Hydrocodone ([7]; Octane, ambient temperature, 4 h): 0% | %-release of Hydrocodone ([7]; Octane, at boiling point, 0.5 h): 0% | %-release of Hydrocodone ([7]; Octane, at boiling point, 1 h): 0% | %-release of Hydrocodone ([7]; Octane, at boiling point, 4 h): 0% | %-release of Hydrocodone ([7]; Petrol ether, ambient temperature, 0.5 h): 0% | %-release of Hydrocodone ([7]; Petrol ether, ambient temperature, 1 h): 0% | %-release of Hydrocodone ([7]; Petrol ether, ambient temperature, 4 h): 0% | %-release of Hydrocodone ([7]; Petrol ether, at boiling point, 0.5 h): 0% | %-release of Hydrocodone ([7]; Petrol ether, at boiling point, 1 h): 0% | %-release of Hydrocodone ([7]; Petrol ether, at boiling point, 4 h): 0% | %-release of Hydrocodone ([7]; Tetrahydrofuran, ambient temperature, 0.5 h): 0% | %-release of Hydrocodone ([7]; Tetrahydrofuran, ambient temperature, 1 h): 0% | %-release of Hydrocodone ([7]; Tetrahydrofuran, ambient temperature, 4 h): 0% | %-release of Hydrocodone ([7]; Tetrahydrofuran, at boiling point, 0.5 h): 0% | %-release of Hydrocodone ([7]; Tetrahydrofuran, at boiling point, 1 h): 0% | %-release of Hydrocodone ([7]; Tetrahydrofuran, at boiling point, 4 h): 0% | %-release of Hydrocodone ([7]; Toluene, ambient temperature, 0.5 h): 0% | %-release of Hydrocodone ([7]; Toluene, ambient temperature, 1 h): 0% | %-release of Hydrocodone ([7]; Toluene, ambient temperature, 4 h): 0% | %-release of Hydrocodone ([7]; Toluene, at boiling point, 0.5 h): 0% | %-release of Hydrocodone ([7]; Toluene, at boiling point, 1 h): 0% | %-release of Hydrocodone ([7]; Toluene, at boiling point, 4 h): 0% | %-release of Hydrocodone ([7]; Water, ambient temperature, 0.5 h): 0% | %-release of Hydrocodone ([7]; Water, ambient temperature, 1 h): 0% | %-release of Hydrocodone ([7]; Water, ambient temperature, 4 h): 0% | %-release of Hydrocodone ([7]; Water, at boiling point, 0.5 h): 0% | %-release of Hydrocodone ([7]; Water, at boiling point, 1 h): 0% | %-release of Hydrocodone ([7]; Water, at boiling point, 4 h): 0% | %-release of Hydrocodone ([7]; Xylene, ambient temperature, 0.5 h): 0% | %-release of Hydrocodone ([7]; Xylene, ambient temperature, 1 h): 0% | %-release of Hydrocodone ([7]; Xylene, ambient temperature, 4 h): 0% | %-release of Hydrocodone ([7]; Xylene, at boiling point, 0.5 h): 0% | %-release of Hydrocodone ([7]; Xylene, at boiling point, 1 h): 0% | %-release of Hydrocodone ([7]; Xylene, at boiling point, 4 h): 0% | half-life ([8]; human, plasma, inhaled or intranasal): 66.6 min | AUC(0-inf) [8, 12]: 13.3 ± 8.86 ng·h/mL | AUC(0-t) [8, 12]: 13.2 ± 8.86 ng·h/mL | Tmax [8, 12]: 27 min | Tlast of Bz-HC (time of the last quantifiable concentration), median ([8]; intranasal crushed Bz-HC.HCl/APAP 13.34/650 mg): 6.22 h | plasma concentrations of intact Bz-HC [9]: < 25 pg/mL | AUC value for intact Bz-HC as % of the AUC value for hydrocodone [10]: approximately 10% | release of hydrocodone from the prodrug by enzymes (in words) [11]: no significant release of hydrocodone | AUC for intact Bz-HC as % of the AUC value for hydrocodone [2]: approximately 10% | AUC for intact Bz-HC as % of the AUC value for hydromorphone [2]: ~3% | solubility at physiological pH (in words) ([5]; human physiological pH of 7.4 (blood)): highly insoluble | water solubility (in words) [5]: hydrophobic; also recorded: poor water solubility

COc1ccc2c3c1OC1C(OC(=O)c4cccc(O)c4)=CC[C@H]4[C@@H](C2)N(C)CC[C@]314 (stereo partly shown) [Compound 3-OH-Bz-HC]
water solubility (in words) [5]: poorly water soluble; also recorded: hydrophobic

COc1ccc(C(=O)OC2=CC[C@H]3[C@H]4Cc5ccc(OC)c6c5[C@@]3(CCN4C)C2O6)cc1 (stereo partly shown) [Compound 4-MeO-Bz-HC]
%-release (conjugate hydrolyzed) in water ([1]; 100° C.): 0% | %-release (conjugate hydrolyzed) in water ([1]; ambient (about 20° C.)): 0% | water solubility (in words) [5]: hydrophobic

COc1ccc2c3c1OC1C(OC(=O)c4ccc(O)cc4)=CC[C@H]4[C@@H](C2)N(C)CC[C@]314 (stereo partly shown) [Compound 4-OH-Bz-HC]
%-release in 5% NaHCO3 ([4]; 5% NaHCO3, 100° C.): 23% | %-release in 5% NaHCO3 ([4]; 5% NaHCO3, ambient (~20° C.)): 1% | %-release (conjugate hydrolyzed) in water ([1]; 100° C.): 0% | %-release (conjugate hydrolyzed) in water ([1]; ambient (about 20° C.)): 0% | %-release in 1N HCl ([3]; 100° C.): 30% | %-release in 1N HCl ([3]; ambient (~20° C.)): 0% | water solubility (in words) [5]: hydrophobic

COc1ccc2c3c1OC1C(OC(=O)COCC(=O)O)=CC[C@H]4[C@@H](C2)N(C)CC[C@]314 (stereo partly shown) [Diglycolate-HC, reference compound]
water solubility (in words) [5]: water soluble

COc1ccc2c3c1OC1C(OC(=O)c4cccnc4)=CCC4C(C2)N(C)CCC314 (stereo not shown) [Nicotinate-HC, nicotinate-hydrocodone]
AUC values of hydrocodone and hydromorphone compared to Hydrocodone.BT (in words) [2]: within the range of bioequivalence | water solubility (in words) [5]: hydrophobic

COc1ccc2c3c1OC1C(OC(=O)c4ccc5c(c4)OCO5)=CC[C@H]4[C@@H](C2)N(C)CC[C@]314 (stereo partly shown) [Piperonylate-HC]
water solubility (in words) [5]: hydrophobic | water solubility (in words) ([5]; listed as piperonylate-HC): poorly water soluble

Tyr-Tyr-Phe-Phe-Ile-Hydrocodone (YYFFI-Hydrocodone) [YYFFI-HC, reference compound]
%-release in 5% NaHCO3 ([4]; 5% NaHCO3, 100° C.): 70% | %-release in 5% NaHCO3 ([4]; 5% NaHCO3, ambient (~20° C.)): 0%
